Experimental data from patent US20050209157A1, “Short bioactive peptides and methods for their use” (priority 2001, published 2005).
Values after ≈ are worked out from the molar mass of the structure shown. Values joined by “and” are separate entries in the source; they are usually repeats but may differ in a detail not shown here. Equal entries are not always repeated. Where two headings read alike, the source gives them in different places. Non-standard residues stand in square brackets, D forms with d. Residues, ends and D or L forms follow the SMILES beside them. No end group written: not given here.

Columns and labels:
S. aureus (MRSA) = type: cell-based, Staphylococcus aureus; details: Table 13, strain SAP0017; in µg/mL
[1] = test system: Pseudomonas aeruginosa 100609; type: cell-based; details: Table 9; in µg/mL
[2] = test system: Candida glabrata ATCC15126; assay: Antimicrobial assays II, NCCLS broth microdilution MIC; type: cell-based; details: Table 13; in µg/mL
S. typhimurium 14028S = type: cell-based, Salmonella typhimurium; details: Table 12
Candida albicans 105 = type: cell-based; details: Table 13; in µg/mL
[3] = test system: Pseudomonas aeruginosa 105663; type: cell-based; details: Table 9; in µg/mL
P. aeruginosa H374 = type: cell-based, Pseudomonas aeruginosa; details: in µg/mL
S. epidermidis C621 = type: cell-based, Staphylococcus epidermidis; details: Table 13; in µg/mL
E. coli UB1005 = type: cell-based, Escherichia coli; details: Table 12
[4] = test system: Pseudomonas aeruginosa H187; type: cell-based; details: in µg/mL

| Compound | MIC S. aureus SAP0017 (S. aureus (MRSA)) | MIC P. aeruginosa Tb 100609 [1] | MIC C. glabrata ATCC15126 [2] | MIC S. typhimurium 14028S (S. typhimurium 14028S) [µg/mL] | MIC C. albicans 105 (Candida albicans 105) | MIC P. aeruginosa Tb 105663 [3] | MIC P. aeruginosa H374 (P. aeruginosa H374; Table 9) | MIC P. aeruginosa H374 (P. aeruginosa H374; Table 12) | MIC S. epidermis C621 (S. epidermidis C621) | MIC E. coli UB1005 (E. coli UB1005) [µg/mL] | MIC P. aeruginosa H187 ([4]; Table 9) | MIC P. aeruginosa H187 ([4]; Table 12) |
| --- | --- | --- | --- | --- | --- | --- | --- | --- | --- | --- | --- | --- |
| CC(C)C[C@H](NC(=O)[C@H](C)NC(=O)[C@H](CC(C)C)NC(=O)[C@H](CCCCN)NC(=O)[C@H](C)NC(=O)[C@H](CC(C)C)NC(=O)[C@H](CCCCN)NC(=O)[C@H](CCCCN)NC(=O)[C@H](C)NC(=O)[C@H](CC(C)C)NC(=O)[C@H](CCCCN)NC(=O)[C@H](C)NC(=O)[C@H](CC(C)C)NC(=O)[C@H](CCCCN)NC(=O)[C@H](CCCCN)NC(=O)[C@H](C)NC(=O)[C@@H](N)Cc1ccccc1)C(N)=O [P35 (17)] | 8 | 4 | 16 | 4 (≈ 2.16 µM) | 32 | 4 | 8 | 8 | 4 | 2 (≈ 1.08 µM) | 8 | 8 |
| FAKKLAKLALKLAKL-NH2 [P44 (26)] | 8 | 8 | 16 | 4 | 8 | 16 | 8 | 8 | 4 | 1 | 8 | 8 |
| FAKKLAKKLL-NH2 [P59 (39)] | 8 | 8 | 16 | 8 | 32 | 8 | 8 | 8 | 8 | 8 | 8 | 8 |
| FAKKLAKKLAKLAL-NH2 [P45 (27)] | 32 | 32 | 16 | 32 | 16 | 32 | 8 | 8 | 16 | 4 | 16 | 16 |
| GIGKFLKKAKKFGKAFVKILKK-NH2 [P42 (24)] | 16 | 8 | 64 | 8 | 32 | 8 | 4 | 4 | 2 | 4 | 8 | 8 |
| FALALKALKKLKKALKKAL-NH2 [P27 (12)] | 8 and 16 | 8 and 16 | 16 and 32 | 16 | 16 and 32 | 8 and 16 | 8 | 8 | 4 | 8 | 8 | 8 |
| FAKLLAKALKKFAL-NH2 [P119 (81)] | 8 | 16 | 16 | 8 | 16 | 16 | 8 | 8 | 4 | 4 | 16 | 16 |
| FALLKALLKKAL-NH2 [P177 (138)] | 8 | 32 | 16 | 16 | 16 | 32 | 16 | 16 | 4 | 8 | 16 | 16 |
| FAKLLAKLAKKLL-NH2 [P43 (25)] | 4 | 8 | 16 | 8 | 8 | 8 | 8 | 8 | 2 | 8 | 8 | 8 |
| CC(C)C[C@H](NC(=O)[C@H](C)NC(=O)[C@H](CCCCN)NC(=O)[C@H](CCCCN)NC(=O)[C@H](CC(C)C)NC(=O)[C@H](C)NC(=O)[C@H](CCCCN)NC(=O)[C@H](CCCCN)NC(=O)[C@H](CC(C)C)NC(=O)[C@@H](CCCCN)NC(=O)[C@@H](CCCCN)NC(=O)[C@H](CC(C)C)NC(=O)[C@H](C)NC(=O)[C@H](CCCCN)NC(=O)[C@H](CCCCN)NC(=O)[C@H](CC(C)C)NC(=O)[C@H](C)NC(=O)[C@H](CCCCN)NC(=O)[C@H](CC(C)C)NC(=O)[C@H](C)NC(=O)[C@H](CC(C)C)NC(=O)[C@H](C)NC(=O)[C@@H](N)Cc1ccccc1)C(=O)O [P37 (19)] (H-FALALKALKKAL[dK][dK]LKKALKKAL-OH; N-terminus assumed) | 8 | 16 | 32 | 8 (≈ 3.15 µM) | 32 | 16 | 8 | 8 | 4 | 4 (≈ 1.58 µM) | 8 | 8 |
| CC(C)C[C@H](NC(=O)[C@H](C)NC(=O)[C@H](CC(C)C)NC(=O)[C@H](C)NC(=O)[C@H](CC(C)C)NC(=O)[C@H](CCCCN)NC(=O)[C@H](C)NC(=O)[C@H](CC(C)C)NC(=O)[C@H](CCCCN)NC(=O)[C@H](CCCCN)NC(=O)[C@H](C)NC(=O)[C@H](CC(C)C)NC(=O)[C@H](CCCCN)NC(=O)[C@H](C)NC(=O)[C@H](CC(C)C)NC(=O)[C@H](CCCCN)NC(=O)[C@H](CCCCN)NC(=O)[C@H](C)NC(=O)[C@@H](N)C(C)C)C(N)=O [P504 (155)] | 4 | 8 | 64 | 4 (≈ 2.01 µM) | 64 | 16 | 8 | 8 | 4 | 4 (≈ 2.01 µM) | 8 | 8 |
| FAKKLAKKLKKLAKKLAKKWKL-OH [P72 (48)] | 16 | 8 | 64 | 8 | 32 | 8 | 4 | 4 | 4 | 2 | 8 | 8 |
| KYKKALKKLAKLL-NH2 [P146 (108)] | 16 | 8 | 16 | 4 | 8 | 8 | 2 | 2 | 8 | 2 | 4 | 4 |
| CC(C)C[C@H](NC(=O)[C@H](C)NC(=O)[C@H](CC(C)C)NC(=O)[C@H](CCCCN)NC(=O)[C@H](C)NC(=O)[C@H](CC(C)C)NC(=O)[C@H](CCCCN)NC(=O)[C@H](CCCCN)NC(=O)[C@H](C)NC(=O)[C@H](CC(C)C)NC(=O)[C@H](CCCCN)NC(=O)[C@H](C)NC(=O)[C@H](CC(C)C)NC(=O)[C@H](CCCCN)NC(=O)[C@H](CCCCN)NC(=O)[C@H](C)NC(=O)[C@@H](N)C(C)C)C(N)=O [P50 (32)] | 4 | 4 | 16 | 4 (≈ 2.21 µM) | 16 | 8 | 4 | 4 | 4 | 2 (≈ 1.11 µM) | 4 | 4 |
| KWKLFKKKTKLFKKFAKKLAKKL-NH2 [P73 (49)] | 16 | 16 | 128 | 16 | 32 | 16 | 8 | 8 | 4 | 8 | 16 | 16 |
| FALALKALKKLAKKLKKLAKKAL-NH2 [P25 (10)] | 16 | 8 | 32 | 8 | 32 | 8 | 8 | 8 | 4 | 8 | 8 | 8 |
